From US20060241097A1, “Pesticidal substituted 1,2,5-thiadiazole derivatives” (FMC CORPORATION, priority 2003, published 2006)
Counter-ions that a name gives are not always drawn. Like-named read-outs stand apart in the source and are kept apart here.

Tests used:
[1] = test system: two-spotted spider mite (Tetranychus urticae); test: Foliar test against two-spotted spider mite on pinto bean seedlings; format: in vivo; details: foliar spray, 72 hours
Procedure: Candidate pesticides, i.e., acaricides of the present invention were evaluated on 7-8 day old pinto bean seedlings infested with two-spotted spider mite (Tetranychus urticae) in comparison with the corresponding 1,2,4-thiadiazole derivatives. The test was conducted using the test method set forth below:
One to two hours prior to the test, leaf cuttings containing about 50-75 adult mites were placed on leaves of each of duplicate pinto bean seedlings for each rate of application of candidate acaricide. Solutions of the candidate acaricide were prepared for testing by serial dilution of a standard solution comprised of an appropriate amount of acaricide in a water/acetone solvent, which contained a small amount of a surfactant. Rates of application of candidate acaricide may range from about 1000 ppm, or more, to about 1 ppm, or less, in a rate series of, for example, 1000 ppm, 300 ppm, 100 ppm, 30 ppm, 10 ppm, 3 ppm, and 1 ppm. The solutions containing each rate of application of candidate acaricide were then sprayed to run-off to both the upper and lower portions of the leaves of the mite-infested pinto bean seedlings. Each test of foliar-applied candidate acaricide included appropriate standard acaricide of known acaricidal activity and blank treatments to aid in assessing the acaricidal activity of the candidate acaricide. Upon completion of the spraying with candidate acaricide, the pinto bean seedlings were maintained in a growth chamber for a period of 72 hours. After this time, the seedlings were examined for dead acarids. […] Upon completion of the evaluation of the test, the percent control of the two-spotted spider mite for each rate of application of the candidate acaricide was determined by comparison of the total number of dead and motibund acarids to the total number of acarids in the test.

[2] = test system: cotton aphid (Aphis gossypii); test: Foliar test against cotton aphid on cotton seedlings; format: in vivo
Procedure: Candidate pesticides, i.e., insecticides of the present invention were evaluated on 7-10 day old cotton seedlings infested with cotton aphid (Aphis gossypii). At least 12 hours prior to the test, leaf cuttings containing about 50 adult aphids were placed on leaves of each of duplicate cotton seedlings for each rate of application of candidate insecticide. Solutions of the candidate insecticide were prepared for testing by serial dilution of a standard solution comprised of an appropriate amount of insecticide in a water/acetone solvent, which contained a small amount of a surfactant. Rates of application of candidate insecticide may range from about 1000 ppm, or more, to about 3 ppm, or less, in a rate series of, for example, 1000 ppm, 100 ppm, 30 ppm, 10 ppm, and 3 ppm. The solutions containing each rate of application of candidate insecticide were then sprayed to run-off to both the upper and lower portions of the leaves of the aphid-infested cotton seedlings. Each test of foliar-applied candidate insecticide included appropriate standard insecticide of known insecticidal activity and blank treatments to aid in assessing the insecticidal activity of the candidate insecticide. Upon completion of the spraying with candidate insecticide, the cotton seedlings were maintained in a growth chamber for a period of 72 hours. After this time, the seedlings were examined for dead insects. Insects were classified as dead if they were off-color or brown and desiccated. Upon completion of the evaluation of the test, the percent mortality of the cotton aphid for each rate of application of the candidate insecticide was determined by comparison of the total number of dead insects to the total number of insects in the test.

[3] = cotton aphid, foliar spray, 1000 ppm, 72 hours
[4] = Aphis gossypii, cotton aphid, foliar spray, 300 ppm, 72 hours, read-out: Percent Mortality
[5] = Aphis gossypii, cotton aphid, foliar spray, 1000 ppm, 72 hours, read-out: Percent Mortality
[6] = Aphis gossypii, foliar, 72 h, read-out: Percent Mortality
[7] = cotton aphid, foliar spray, 300 ppm, 72 hours

SMILES: Clc1nsnc1C1(Cl)CN2CCC1CC2 (centres unmarked)
- melting point: 93 to 95 °C

SMILES: Clc1nsnc1C1=CC=CN(Cc2ccccc2)C1 (as salt: salt) [Compound 162, 3-chloro-4-(1-benzylpyrid-3-yl)-1,2,5-thiadiazole]
- melting point: 47 to 49 °C

SMILES: CN1CCC=C(c2ncns2)C1 [A, reference compound]
- Percent Control ([1]; 300 ppm): completely inactive

SMILES: Cc1nsc(C2=CCCN(C)C2)n1 [B, reference compound]
- Percent Control ([1]; 300 ppm): completely inactive

SMILES: Clc1nsnc1C1=CCCN(Cc2ccccc2)C1 [Compound 2, 3-chloro-4-[1-benzyl(1,2,5,6-tetrahydropyrid-3-yl)]-1,2,5-thiadiazole]
- mortality at 1000 ppm ([2]; Aphis gossypii, cotton aphid, foliar spray, 1000 ppm, 72 hours, read-out: Percent Mortality (LP class)): > 0%

SMILES: CCOC(=O)N1CCC=C(c2nsnc2Cl)C1 [Compound 3]
- Percent Mortality (LP class) [2, 3]: LP (LP means that some activity was observed because the population of the cotton aphids was lowered but a value was not calculated.)

SMILES: CN1CCC=C(c2cnsn2)C1 [Compound 4, 3-[1-methyl(1,2,5,6-tetrahydropyrid-3-yl)]-1,2,5-thiadiazole]
- mortality at 100 ppm ([2]; Aphis gossypii, cotton aphid, foliar spray, 100 ppm, 72 hours, read-out: Percent Mortality): 24%
- mortality at 300 ppm [2, 4]: 73%
- mortality at 1000 ppm [2, 5]: 86%
- Percent Control ([1]; 10 ppm): 49%
- Percent Control ([1]; 30 ppm): 96%
- Percent Control ([1]; 100 ppm): 100%
- Percent Control ([1]; 300 ppm): 100%
- Percent Control ([1]; 1000 ppm): 100%

SMILES: CN1CCC=C(c2nsnc2F)C1 [Compound 23, 3-fluoro-4-(1-methyl-1,2,5,6-tetrahydropyrid-3-yl)-1,2,5-thiadiazole]
- mortality at 1000 ppm ([2]; Aphis gossypii, cotton aphid, foliar spray, 1000 ppm, 72 hours, average of two tests, read-out: Percent Mortality): 11%
- Percent Control ([1]; 10 ppm): 35%
- Percent Control ([1]; 30 ppm): 95%
- Percent Control ([1]; 100 ppm): 98%
- Percent Control ([1]; 300 ppm): 100%

SMILES: CCCCOc1nsnc1C1=CCCN(C)C1 [Compound 60]
- Percent Mortality (LP class) [2, 3]: LP (LP means that some activity was observed because the population of the cotton aphids was lowered but a value was not calculated.)
- Percent Control ([1]; 300 ppm): 10%
- Percent Control ([1]; 1000 ppm): 41%

SMILES: CN1CCC=C(c2nsnc2Oc2ccc(F)cc2)C1 [Compound 63]
- Percent Mortality ([2]; cotton aphid, foliar spray, 1000 ppm, 72 hours, average of two tests): 48%

SMILES: C#CCOc1nsnc1C1=CCCN(C)C1 [Compound 66]
- Percent Control ([1]; 100 ppm): 52%
- Percent Control ([1]; 300 ppm): 83%
- Percent Control ([1]; 1000 ppm): 98%

SMILES: CC#CCOc1nsnc1C1=CCCN(C)C1 [Compound 67]
- Percent Control ([1]; 300 ppm): 100%
- Percent Control ([1]; 1000 ppm): 100%

SMILES: C#CCCOc1nsnc1C1=CCCN(C)C1 [Compound 68]
- Percent Mortality (LP class) [2, 3]: LP (LP means that some activity was observed because the population of the cotton aphids was lowered but a value was not calculated.)

SMILES: CCCSc1nsnc1C1=CCCN(C)C1 [Compound 71]
- Percent Control ([1]; 300 ppm): 20%

SMILES: CCCCSc1nsnc1C1=CCCN(C)C1 [Compound 72]
- Percent Control ([1]; 300 ppm): 4%
- Percent Control ([1]; 1000 ppm): 34%

SMILES: CCCCCSc1nsnc1C1=CCCN(C)C1 [Compound 73]
- Percent Mortality (LP class) [2, 3]: LP (LP means that some activity was observed because the population of the cotton aphids was lowered but a value was not calculated.)

SMILES: CCCCCCSc1nsnc1C1=CCCN(C)C1 [Compound 75]
- Percent Mortality [2, 3]: 25%

SMILES: C=CCSc1nsnc1C1=CCCN(C)C1 [Compound 77]
- Percent Control ([1]; 300 ppm): 13%

SMILES: Clc1nsnc1C1CN2CCC1CC2 (centres unmarked) [Compound 102, 3-chloro-4-quinuclidin-3-yl-1,2,5-thiadiazole]
- mortality at 300 ppm [2, 6]: 8%
- mortality at 1000 ppm [2, 6]: 33%
- Percent Control ([1]; 100 ppm): 13%
- Percent Control ([1]; 300 ppm): 27%

SMILES: COc1nsnc1C1CN2CCC1CC2 (centres unmarked) [Compound 107]
- Percent Mortality [2, 7]: 12%
- Percent Mortality [2, 3]: 24%

SMILES: CCOc1nsnc1C1CN2CCC1CC2 (centres unmarked) [Compound 108]
- Percent Mortality [2, 7]: 3%
- Percent Mortality [2, 3]: 17%

SMILES: CCCOc1nsnc1C1CN2CCC1CC2 (centres unmarked) [Compound 109]
- Percent Control ([1]; 300 ppm): 15%
- Percent Control ([1]; 1000 ppm): 65%

SMILES: CCCCOc1nsnc1C1CN2CCC1CC2 (centres unmarked) [Compound 110, 3-butoxy-4-quinuclidin-3-yl-1,2,5-thiadiazole]
- mortality at 1000 ppm ([2]; Aphis gossypii, foliar, 72 h, read-out: Percent Mortality (LP class)): > 0%
- Percent Control ([1]; 300 ppm): 34%

SMILES: Cc1nsnc1-c1cccnc1 [Compound 132, 3-methyl-4-pyrid-3-yl-1,2,5-thiadiazole]
- mortality at 300 ppm [2, 4]: 35%
- mortality at 1000 ppm [2, 5]: 82%

SMILES: CCCOc1nsnc1C1=CC=CNC1 [Compound 140]
- Percent Mortality (LP class) [2, 3]: LP (LP means that some activity was observed because the population of the cotton aphids was lowered but a value was not calculated.)
